The source of these data is ChEMBL document CHEMBL5634137, “2,4-Diacetylphloroglucinol (DAPG) derivatives rapidly eradicate methicillin-resistant staphylococcus aureus without resistance development by disrupting membrane” (Eur J Med Chem, 2023).

Common to all, as to assay type: functional
Assay [1] deals with Staphylococcus aureus. The assay can be described thus: Antibacterial activity against methicillin-resistant Staphylococcus aureus ATCC 3392 assessed as inhibition of bacterial growth incubated for 24 hrs by broth dilution method. Background: Dilution methods test growth across graded concentrations, often in twofold steps.
Assay [2] concerns Staphylococcus aureus. The assay can be described thus: Antibacterial activity against methicillin-resistant Staphylococcus aureus ATCC 4330 assessed as inhibition of bacterial growth incubated for 24 hrs by broth dilution method.
In assay [3] the test system is Staphylococcus aureus. The experiment in a line: Antibacterial activity against Methicillin-resistant Staphylococcus aureus USA300 assessed as inhibition of bacterial growth incubated for 24 hrs by broth dilution method.
Assay [4] has as its system Staphylococcus aureus. The assay can be described thus: Bactericidal activity against methicillin-resistant Staphylococcus aureus ATCC 3392 assessed as inhibition of bacterial growth incubated for 24 hrs by broth dilution method.
In assay [5] the test system is Staphylococcus aureus. The assay can be described thus: Selectivity index, ratio of MBC for bactericidal against methicillin-resistant Staphylococcus aureus ATCC 3392 to MIC for antibacterial activity against methicillin-resistant Staphylococcus aureus ATCC 3392.
In assay [6] the test system is Staphylococcus aureus. The experiment in a line: Selectivity index, ratio of MBC for bactericidal against methicillin-resistant Staphylococcus aureus ATCC 4330 to MIC for antibacterial activity against methicillin-resistant Staphylococcus aureus ATCC 4330.
The subject of another assay is Pseudomonas aeruginosa. The experiment in a line: Antibacterial activity against Pseudomonas aeruginosa […] assessed as inhibition of bacterial growth incubated for 24 hrs by broth dilution method.
A further assay deals with Klebsiella pneumoniae. The assay can be described thus: Antibacterial activity against Klebsiella pneumoniae […] assessed as inhibition of bacterial growth incubated for 24 hrs by broth dilution method.
The subject of a further assay is Escherichia coli. The assay can be described thus: Antibacterial activity against Escherichia coli ATCC 11775 assessed as inhibition of bacterial growth incubated for 24 hrs by broth dilution method.
The subject of assay [7] is Staphylococcus aureus. The experiment in a line: Bactericidal against methicillin-resistant Staphylococcus aureus ATCC 4330 assessed as inhibition of bacterial growth incubated for 24 hrs by broth dilution method.

As a reminder, the MIC is the lowest concentration that inhibits growth of the organism. One may read the MBC as the lowest tested concentration that kills the bacteria rather than only halting them.

In brackets after ≈: the same amount, converted by molar mass.

In the case of `CCCC(=O)c1c(O)cc(O)c(C(=O)CCC)c1O`, the minimum inhibitory concentration (MIC) with Staphylococcus aureus [1] and in the assay with Staphylococcus aureus [2] was 4 µg/mL (≈ 15 µM) each time.
Consider `CC(C)(C)CC(=O)c1c(O)cc(O)cc1O`, for which the values for the MIC in the assay with Staphylococcus aureus [1] and with Staphylococcus aureus [2] were above 64 µg/mL and 64 µg/mL (≈ 285 µM), respectively.
As to `O=C(O)c1cn(C2CC2)c2cc(N3CCNCC3)c(F)cc2c1=O` [CIPROFLOXACIN], the minimum inhibitory concentration (MIC) in the assay with Staphylococcus aureus [3], with Staphylococcus aureus [1] and with Staphylococcus aureus [2] was 0.25 µg/mL (≈ 0.754 µM) throughout.
As to `COc1cc(OC)c(C(C)=O)c(OC)c1C(C)=O`, the MIC with Staphylococcus aureus [1] and in the assay with Staphylococcus aureus [2] was above 64 µg/mL throughout.
With `C[C@H]1c2cccc(O)c2C(=O)C2=C(O)[C@]3(O)C(=O)C(C(N)=O)=C(O)[C@@H](N(C)C)[C@@H]3[C@@H](O)[C@@H]21` [DOXYCYCLINE ANHYDROUS], the MIC in the assay on Staphylococcus aureus [3] was 0.5 µg/mL (≈ 1.13 µM).
`CCC(C)C(=O)c1c(O)cc(O)c(C(=O)C(C)CC)c1O` (stereo unspecified): the MIC in the assay with Staphylococcus aureus [1] and in the assay on Staphylococcus aureus [2] was 4 µg/mL (≈ 13.6 µM) in each case.
With `CC(C)CCC(=O)c1c(O)cc(O)c(C(=O)CCC(C)C)c1O`, the minimum bactericidal concentration (MBC) with Staphylococcus aureus [4] and in the assay on Staphylococcus aureus [7] was 2 µg/mL (≈ 6.2 µM) in each case. Further, the “Selectivity Index” value with Staphylococcus aureus [5] and in the assay with Staphylococcus aureus [6] was 4 in each case. Also, the minimum inhibitory concentration (MIC) was 0.5 µg/mL (≈ 1.55 µM) in the assay on Staphylococcus aureus [3]; 0.5 µg/mL (≈ 1.55 µM) in the assay on Staphylococcus aureus [1]; above 64 µg/mL with Pseudomonas aeruginosa; above 64 µg/mL with Klebsiella pneumoniae; above 64 µg/mL with Escherichia coli; 0.5 µg/mL (≈ 1.55 µM) in the assay on Staphylococcus aureus [2].
Take `COc1cc(O)c(C(C)=O)c(O)c1C(C)=O`: the MIC in the assay with Staphylococcus aureus [1] and with Staphylococcus aureus [2] was above 64 µg/mL in each case.
Regarding `CCCCCCCCCCCCCCCC(=O)c1c(O)cc(O)c(C(=O)CCCCCCCCCCCCCCC)c1O`, the MIC in the assay with Staphylococcus aureus [1] and with Staphylococcus aureus [2] was above 64 µg/mL each time.
Take `O=C(c1c(O)cc(O)cc1O)C1CCCCC1`: the values for the MIC with Staphylococcus aureus [1] and with Staphylococcus aureus [2] were above 64 µg/mL and 64 µg/mL (≈ 271 µM), respectively.
Take `CC1(C)S[C@@H]2[C@H](NC(=O)[C@H](N)c3ccc(O)cc3)C(=O)N2[C@H]1C(=O)O` [AMOXICILLIN]: the MIC in the assay with Staphylococcus aureus [3] was 128 µg/mL (≈ 350 µM).
In the case of `CCCCCCCCCC(=O)c1c(O)cc(O)c(C(=O)CCCCCCCCC)c1O`, the minimum inhibitory concentration (MIC) in the assay with Staphylococcus aureus [1] and in the assay with Staphylococcus aureus [2] was 8 µg/mL (≈ 18.4 µM) each time.
Regarding `COc1cc(O)c(C(C)=O)c(OC)c1C(C)=O`, the MIC with Staphylococcus aureus [1] and with Staphylococcus aureus [2] was above 64 µg/mL in each case.
With `CCC(=O)c1c(O)cc(O)cc1O` [FLOPROPIONE], the MIC in the assay on Staphylococcus aureus [1] and in the assay with Staphylococcus aureus [2] was above 64 µg/mL in each case.
`O=Cc1c(O)cc(O)c(C=O)c1O`: the minimum inhibitory concentration (MIC) with Staphylococcus aureus [1] and in the assay with Staphylococcus aureus [2] was above 64 µg/mL in each case.
As to `CCCCCCC(=O)c1c(O)cc(O)cc1O`, the minimal inhibitory concentration (MIC) in the assay with Staphylococcus aureus [1] and in the assay with Staphylococcus aureus [2] was 16 µg/mL (≈ 67.1 µM) each time.
For `CC(C)C(=O)c1c(O)cc(O)c(C(=O)C(C)C)c1O`, the minimal inhibitory concentration (MIC) in the assay with Staphylococcus aureus [1] and with Staphylococcus aureus [2] was 4 µg/mL (≈ 15 µM) each time.
As to `CCCCCC(=O)c1c(O)cc(O)cc1O`, the MIC in the assay with Staphylococcus aureus [1] and in the assay with Staphylococcus aureus [2] was 32 µg/mL (≈ 143 µM) throughout.
Regarding `CC(C)C(=O)c1c(O)cc(O)cc1O` [PHLOROISOBUTYROPHENONE], the results for the minimal inhibitory concentration (MIC) in the assay with Staphylococcus aureus [1] and in the assay on Staphylococcus aureus [2] were 64 µg/mL (≈ 326 µM) and 32 µg/mL (≈ 163 µM), respectively.
In the same order, the values of `CCCCCCCC(=O)c1c(O)cc(O)cc1O` are 8 µg/mL (≈ 31.7 µM) and 8 µg/mL (≈ 31.7 µM).
As for `O=C(Cc1ccccc1)c1c(O)cc(O)cc1O`, the values for the MIC in the assay with Staphylococcus aureus [1] and in the assay with Staphylococcus aureus [2] were above 64 µg/mL and 32 µg/mL (≈ 131 µM), respectively.
As to `CC(C)(C)CC(=O)c1c(O)cc(O)c(C(=O)CC(C)(C)C)c1O`, the MBC in the assay on Staphylococcus aureus [4] and in the assay with Staphylococcus aureus [7] was 4 µg/mL (≈ 12.4 µM) throughout. Also, the “Selectivity Index” value with Staphylococcus aureus [5] and in the assay with Staphylococcus aureus [6] was 8 each time. In addition, the minimal inhibitory concentration (MIC) is 0.5 µg/mL (≈ 1.55 µM) in the assay on Staphylococcus aureus [3]; 0.5 µg/mL (≈ 1.55 µM) in the assay with Staphylococcus aureus [1]; above 64 µg/mL in the assay with Pseudomonas aeruginosa; above 64 µg/mL in the assay with Klebsiella pneumoniae; above 64 µg/mL in the assay with Escherichia coli; 0.5 µg/mL (≈ 1.55 µM) with Staphylococcus aureus [2].
`CCC(=O)c1c(O)cc(O)c(C(=O)CC)c1O`: the results for the MIC in the assay on Staphylococcus aureus [1] and in the assay on Staphylococcus aureus [2] were 8 µg/mL (≈ 33.6 µM) and 4 µg/mL (≈ 16.8 µM), respectively.
